Measured values as given in patent US11293024B2, “Antisense antibacterial compounds and methods” (priority 2014, dated 2022).

Experiments:
P. aeruginosa PAO1 = experiment: Synergy assay with Piperacillin Tazobactam; assay type: cell-based, Pseudomonas aeruginosa; details: PPMO 32 to 0.5 μM; 2 μg/mL PMBN; 18 hours at 37° C.
Protocol: (§1) A synergy assay was performed with Piperacillin Tazobactam and AcpP PPMO #35 in P. aeruginosa PAO1. 1×10^6 cfu/mL of PAO1 was inoculated into Mueller Hinton II media in an 96-well plate in the presence of 2 μs/mL PMBN. Piperacillin Tazobactam (PT) was serial diluted by half dilutions in the lateral direction from 128 to 0.124 μg/mL. AcpP PPMO #35 was vertically diluted in the same manner from 32 to 0.5 μM. The 96-well plate was then incubated for 18 hours at 37° C.
as §1, with “μg/mL” for “μs/mL”

[1] = test system: existing P. aeruginosa PAO1 biofilm; experiment: Biofilm reduction in MBEC plate (crystal violet); assay type: cell-based, Pseudomonas aeruginosa; details: at 10, 5, 2.5, and 1 μM; 2 μg/mL PMBN; 48 hour biofilm
Protocol: P. aeruginosa PAO1 (5×10^5 cfu/mL) was grown in an MBEC plate for 24 hours. At 24 hours, the pegs were moved to a new 96-well plate containing fresh MHII media and either scrambled, RpsJ, or AcpP PPMO at the indicated concentrations. All wells containing PPMOs (including Scrambled) contained 2 μg/mL of PMBN. The pegs were again moved to new plates with or without PPMOs at 32 and 40 hours. Pegs were processed for crystal violet or visualized with microscopy at 48 hours. […] FIGS. 7B-7D: Spinning Disk confocal microscopy images of 48 hour biofilm treated with (FIG. 7B) 10 μM Scr PPMO #42, (FIG. 7C) 2.5 μM AcpP PPMO #35, (FIG. 7D) 10 μM AcpP PPMO #35. Green channel is PAO1 GFP; Red channel is biofilm stained with 200 μg/mL of Concanavalin A, Alexafluor 647 conjugate.
Pseudomonas aeruginosa Biofilm Reduction in MBEC Plate Protocol
• 1. 10 mL of MH is inoculated with a single colony and incubated at 37° C. and ˜250 rpm for about 5 hours. • 2. The sample is centrifuged for 10 minutes at ˜4000 rpm at 4° C., the supernatant decanted and the pellet resuspended in 10 mL of 150 mM NaCl or PBS. This step is repeated to wash the pellet 3 times. • 3. […] The OD600 of the sample is taken and cfu/mL is calculated. […]
1. […] The final OD570 of the 10× dilution of solution should be approximately 0.500 absorbance. […]
2. OD reading: The OD570 for the 96-well plate from step 1e is determined. […]

In the case of “PPMO #35: AcpP PMO CTCATACCTTG, 5′ (RXR)4XB CPP, 3′ H”, the “MIC of Piperacillin Tazobactam in combination with PPMO” value (P. aeruginosa PAO1) is reported as “decreasing MIC values as the PPMO concentration increased” and the “reduction of existing biofilm (crystal violet)” value [1] is reported as “statistically significant reduction of biofilm”.
